Test results reported in patent publication US20020035125A1, “Therapeutic combination” (priority 2000, published 2002).

Details: 100% relative humidity over 48 hours

SMILES: CCOC(=O)N1c2ccc(C(F)(F)F)cc2[C@@H](N(Cc2cc(C(F)(F)F)cc(C(F)(F)F)c2)C(=O)OC)C[C@H]1CC [Example 9, Anhydrous (−)-(2R,4S)-4-[(3,5-Bis-trifluoromethyl-benzyl)-methoxycarbonyl-amino]-2-ethyl-6-trifluoromethyl-3,4-dihydro-2H-quinoline-1-carboxylic Acid Ethyl Ester]
- Hygroscopicity: Non-hygroscopic
